By inhibition is commonly meant the percentage by which the read-out fell short of the control. In general, IC50 refers to the concentration that gives 50% inhibition.

In assay [1] the target is AMP-activated protein kinase, AMPK (Homo sapiens) (UniProt P54646+O43741+P54619+Q9UGJ0+Q9Y478+Q13131+Q9UGI9). Description: Inhibition of AMPK (unknown origin) at 0.5 uM relative to control. Type of assay: protein-complex assay.
Assay [2] deals with T1, Inhibitor of nuclear factor kappa-B kinase subunit beta (Homo sapiens) (UniProt O14920).
T1 sequence (whole entry): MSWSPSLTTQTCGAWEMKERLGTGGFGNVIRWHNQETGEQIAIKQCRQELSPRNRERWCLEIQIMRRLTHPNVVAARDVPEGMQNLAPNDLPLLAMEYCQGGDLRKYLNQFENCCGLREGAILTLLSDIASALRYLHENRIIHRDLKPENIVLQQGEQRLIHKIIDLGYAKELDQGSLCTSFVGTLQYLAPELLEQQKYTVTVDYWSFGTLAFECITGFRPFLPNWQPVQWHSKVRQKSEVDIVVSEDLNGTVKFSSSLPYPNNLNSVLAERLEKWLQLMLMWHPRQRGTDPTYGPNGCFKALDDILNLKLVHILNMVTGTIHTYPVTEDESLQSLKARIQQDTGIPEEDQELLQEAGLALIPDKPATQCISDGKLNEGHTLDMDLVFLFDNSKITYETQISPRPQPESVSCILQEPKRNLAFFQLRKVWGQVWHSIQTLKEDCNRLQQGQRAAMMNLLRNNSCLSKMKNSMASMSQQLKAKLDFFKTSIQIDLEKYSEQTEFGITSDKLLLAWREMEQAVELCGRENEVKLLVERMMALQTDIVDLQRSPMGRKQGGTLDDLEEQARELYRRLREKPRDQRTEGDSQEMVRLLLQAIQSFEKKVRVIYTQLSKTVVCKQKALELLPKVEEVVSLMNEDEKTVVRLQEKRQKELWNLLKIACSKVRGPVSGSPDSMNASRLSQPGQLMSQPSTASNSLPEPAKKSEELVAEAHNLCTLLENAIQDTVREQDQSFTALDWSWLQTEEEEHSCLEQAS
Description: Inhibition of IKKbeta (unknown origin) at 0.5 uM relative to control.

Assay [3] addresses T2, Aurora kinase A (Homo sapiens) (UniProt O14965).
T2 sequence (whole entry): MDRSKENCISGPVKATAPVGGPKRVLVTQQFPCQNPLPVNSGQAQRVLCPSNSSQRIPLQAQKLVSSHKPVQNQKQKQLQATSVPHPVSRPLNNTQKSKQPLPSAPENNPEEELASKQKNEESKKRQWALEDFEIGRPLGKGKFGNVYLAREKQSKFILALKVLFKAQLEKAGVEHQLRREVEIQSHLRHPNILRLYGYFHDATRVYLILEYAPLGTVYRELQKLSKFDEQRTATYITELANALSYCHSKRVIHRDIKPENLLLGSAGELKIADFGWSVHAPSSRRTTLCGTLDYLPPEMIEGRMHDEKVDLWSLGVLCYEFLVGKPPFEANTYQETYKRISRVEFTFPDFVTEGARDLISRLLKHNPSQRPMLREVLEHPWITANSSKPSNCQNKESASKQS
Description: Inhibition of Aurora A (unknown origin) at 0.5 uM relative to control.

Assay [4] deals with Insulin receptor (Homo sapiens) (UniProt P06213). Description: Inhibition of IR (unknown origin) at 0.5 uM relative to control.
In assay [5] the target is Casein kinase I isoform alpha (Homo sapiens) (UniProt P48729). Description: Inhibition of CK1 (unknown origin) at 0.5 uM relative to control.
Chain of Casein kinase I isoform alpha (Homo sapiens) (P48729 2-337 limits assumed): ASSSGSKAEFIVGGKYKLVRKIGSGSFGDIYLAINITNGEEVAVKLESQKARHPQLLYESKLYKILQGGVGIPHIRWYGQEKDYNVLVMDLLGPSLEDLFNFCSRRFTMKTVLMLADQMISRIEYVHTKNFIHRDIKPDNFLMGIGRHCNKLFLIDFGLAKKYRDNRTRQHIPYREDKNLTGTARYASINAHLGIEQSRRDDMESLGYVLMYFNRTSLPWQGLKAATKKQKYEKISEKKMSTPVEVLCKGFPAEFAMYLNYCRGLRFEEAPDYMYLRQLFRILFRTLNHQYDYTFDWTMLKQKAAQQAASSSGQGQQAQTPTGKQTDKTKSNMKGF
Assay [6] deals with RAC-beta serine/threonine-protein kinase (Homo sapiens) (UniProt P31751). Description: Inhibition of PKBbeta (unknown origin) at 0.5 uM relative to control.
The target of assay [7] is Dual specificity tyrosine-phosphorylation-regulated kinase 1A (Homo sapiens, UniProt Q13627). Description: Inhibition of Dyrk1A (unknown origin) using Woodtide as substrate after 30 mins by P81 membrane assay in presence of [33P]-g-ATP.
In assay [8] the target is Vascular endothelial growth factor receptor 1 (Homo sapiens) (UniProt P17948). Description: Inhibition of VEGFR1 (unknown origin) at 0.5 uM relative to control.
Chain of Vascular endothelial growth factor receptor 1 (Homo sapiens) (P17948 whole entry): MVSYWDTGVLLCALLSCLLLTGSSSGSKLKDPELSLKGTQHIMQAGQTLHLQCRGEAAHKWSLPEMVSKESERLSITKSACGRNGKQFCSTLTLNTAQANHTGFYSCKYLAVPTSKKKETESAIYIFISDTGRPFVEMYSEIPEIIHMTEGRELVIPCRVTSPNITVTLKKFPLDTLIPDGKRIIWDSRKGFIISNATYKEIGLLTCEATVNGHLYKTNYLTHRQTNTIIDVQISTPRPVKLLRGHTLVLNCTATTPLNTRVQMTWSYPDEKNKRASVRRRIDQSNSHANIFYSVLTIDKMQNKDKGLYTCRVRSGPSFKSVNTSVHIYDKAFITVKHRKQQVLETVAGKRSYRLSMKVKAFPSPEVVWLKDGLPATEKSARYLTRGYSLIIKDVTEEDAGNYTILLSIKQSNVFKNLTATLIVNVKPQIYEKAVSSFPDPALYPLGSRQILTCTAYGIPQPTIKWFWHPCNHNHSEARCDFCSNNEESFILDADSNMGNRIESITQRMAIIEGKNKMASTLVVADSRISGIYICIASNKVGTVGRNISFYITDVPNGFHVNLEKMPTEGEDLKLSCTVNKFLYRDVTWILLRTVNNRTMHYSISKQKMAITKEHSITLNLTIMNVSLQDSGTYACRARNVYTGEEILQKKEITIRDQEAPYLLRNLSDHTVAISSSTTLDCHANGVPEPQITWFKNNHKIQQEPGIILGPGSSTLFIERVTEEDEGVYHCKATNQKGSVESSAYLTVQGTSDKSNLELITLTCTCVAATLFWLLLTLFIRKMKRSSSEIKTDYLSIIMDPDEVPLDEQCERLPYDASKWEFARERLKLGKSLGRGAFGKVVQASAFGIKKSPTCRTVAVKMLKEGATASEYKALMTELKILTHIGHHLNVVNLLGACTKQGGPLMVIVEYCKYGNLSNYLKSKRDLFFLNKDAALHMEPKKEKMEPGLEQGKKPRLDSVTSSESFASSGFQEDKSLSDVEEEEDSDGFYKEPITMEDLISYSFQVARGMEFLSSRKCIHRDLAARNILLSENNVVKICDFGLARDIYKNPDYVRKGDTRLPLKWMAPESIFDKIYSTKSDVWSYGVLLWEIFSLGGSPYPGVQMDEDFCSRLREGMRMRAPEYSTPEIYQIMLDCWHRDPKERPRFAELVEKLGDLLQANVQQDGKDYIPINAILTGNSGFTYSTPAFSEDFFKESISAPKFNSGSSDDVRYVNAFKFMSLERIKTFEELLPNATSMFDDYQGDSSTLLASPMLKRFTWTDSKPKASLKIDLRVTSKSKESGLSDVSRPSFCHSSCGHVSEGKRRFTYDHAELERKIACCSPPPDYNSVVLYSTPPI
In assay [9] the target is Cyclin-dependent kinase 2 (Homo sapiens) (UniProt P24941). Description: Inhibition of CDK2 (unknown origin) at 0.5 uM relative to control.
Assay [10] has as its target Tyrosine-protein kinase ABL1 (Homo sapiens) (UniProt P00519). Description: Inhibition of Abl (unknown origin) at 0.5 uM relative to control.
For assay [11], the target named is Protein kinase C alpha type (Homo sapiens) (UniProt P17252). Description: Inhibition of PKCalpha (unknown origin) at 0.5 uM relative to control.
For assay [12], the target named is RAC-alpha serine/threonine-protein kinase (Homo sapiens) (UniProt P31749). Description: Inhibition of PKBalpha (unknown origin) at 0.5 uM relative to control.
Chain of RAC-alpha serine/threonine-protein kinase (Homo sapiens) (P31749 whole entry): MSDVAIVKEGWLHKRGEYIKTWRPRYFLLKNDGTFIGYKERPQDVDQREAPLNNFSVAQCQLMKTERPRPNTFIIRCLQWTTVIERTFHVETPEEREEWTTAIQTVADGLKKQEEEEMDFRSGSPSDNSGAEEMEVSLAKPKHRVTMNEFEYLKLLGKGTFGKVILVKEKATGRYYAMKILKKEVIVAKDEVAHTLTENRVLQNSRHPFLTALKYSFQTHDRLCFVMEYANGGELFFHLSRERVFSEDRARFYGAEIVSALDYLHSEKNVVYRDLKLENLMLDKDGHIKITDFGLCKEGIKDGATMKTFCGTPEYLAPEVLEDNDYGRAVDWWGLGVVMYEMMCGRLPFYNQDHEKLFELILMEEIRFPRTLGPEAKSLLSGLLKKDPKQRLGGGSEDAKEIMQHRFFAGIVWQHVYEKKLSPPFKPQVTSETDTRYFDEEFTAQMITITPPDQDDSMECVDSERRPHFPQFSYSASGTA
For assay [13], the target named is Aurora kinase B (Homo sapiens) (UniProt Q96GD4). Description: Inhibition of Aurora B (unknown origin) at 0.5 uM relative to control.
Chain of Aurora kinase B (Homo sapiens) (Q96GD4 whole entry): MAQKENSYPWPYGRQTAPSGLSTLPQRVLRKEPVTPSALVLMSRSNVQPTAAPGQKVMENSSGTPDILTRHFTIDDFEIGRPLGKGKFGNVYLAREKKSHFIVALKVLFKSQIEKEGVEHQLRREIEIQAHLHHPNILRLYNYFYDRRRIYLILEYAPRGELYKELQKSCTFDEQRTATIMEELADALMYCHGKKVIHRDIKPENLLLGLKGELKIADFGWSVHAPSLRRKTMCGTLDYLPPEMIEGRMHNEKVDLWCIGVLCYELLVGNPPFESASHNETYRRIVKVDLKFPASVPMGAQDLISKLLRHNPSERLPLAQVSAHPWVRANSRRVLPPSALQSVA
The target of assay [14] is T3, Dual specificity tyrosine-phosphorylation-regulated kinase 2 (Homo sapiens, UniProt Q92630).
T3 sequence (Q92630 whole entry): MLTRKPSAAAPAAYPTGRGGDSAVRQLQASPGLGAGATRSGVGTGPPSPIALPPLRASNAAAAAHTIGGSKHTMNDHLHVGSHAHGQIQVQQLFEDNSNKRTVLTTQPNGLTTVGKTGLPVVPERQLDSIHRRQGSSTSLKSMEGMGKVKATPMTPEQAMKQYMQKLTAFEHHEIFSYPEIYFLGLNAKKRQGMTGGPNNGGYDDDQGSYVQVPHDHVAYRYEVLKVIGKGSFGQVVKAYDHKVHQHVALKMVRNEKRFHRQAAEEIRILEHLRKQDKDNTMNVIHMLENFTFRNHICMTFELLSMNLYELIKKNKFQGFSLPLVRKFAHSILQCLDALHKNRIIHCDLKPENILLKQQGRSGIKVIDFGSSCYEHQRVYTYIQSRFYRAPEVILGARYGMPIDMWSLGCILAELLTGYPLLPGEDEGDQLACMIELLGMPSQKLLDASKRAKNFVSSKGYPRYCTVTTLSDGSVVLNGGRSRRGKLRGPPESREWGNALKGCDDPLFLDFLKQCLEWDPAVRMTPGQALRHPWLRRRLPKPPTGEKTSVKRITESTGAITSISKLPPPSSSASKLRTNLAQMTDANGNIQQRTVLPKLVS
Description: Inhibition of Dyrk2 (unknown origin) using Woodtide as substrate after 30 mins by P81 membrane assay in presence of [33P]-g-ATP.

For assay [15], the system named is SH-SY5Y. Description: Neuroprotective activity against glutamate-induced neurotoxicity in human SH-SY5Y cells assessed as cell viability at 10 uM incubated for 30 mins prior to glutamate challenge measured after 24 hrs by MTT assay (reference value: 73.8 +/- 4.5%). Type of assay: functional. The settings on record: read-out: Activity.
Assay [16] has as its target Cyclin-dependent kinase 9 (Homo sapiens) (UniProt P50750). Description: Inhibition of CDK9 (unknown origin) at 0.5 uM relative to control.
Assay [17] addresses Glycogen synthase kinase-3 beta (Homo sapiens) (UniProt P49841). Description: Inhibition of GSK3beta (unknown origin) at 0.5 uM relative to control.

Chain of Cyclin-dependent kinase 9 (Homo sapiens) (P50750 whole entry): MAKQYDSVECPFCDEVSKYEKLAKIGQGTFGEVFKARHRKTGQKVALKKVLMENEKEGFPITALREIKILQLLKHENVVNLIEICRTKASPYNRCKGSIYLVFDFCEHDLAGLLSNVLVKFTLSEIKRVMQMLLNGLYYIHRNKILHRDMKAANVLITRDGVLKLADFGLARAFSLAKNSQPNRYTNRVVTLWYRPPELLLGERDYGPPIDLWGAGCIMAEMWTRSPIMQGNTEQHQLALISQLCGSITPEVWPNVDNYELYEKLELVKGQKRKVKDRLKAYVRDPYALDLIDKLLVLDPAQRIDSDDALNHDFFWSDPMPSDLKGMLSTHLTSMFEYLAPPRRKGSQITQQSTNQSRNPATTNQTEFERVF
Chain of Tyrosine-protein kinase ABL1 (Homo sapiens) (P00519 whole entry): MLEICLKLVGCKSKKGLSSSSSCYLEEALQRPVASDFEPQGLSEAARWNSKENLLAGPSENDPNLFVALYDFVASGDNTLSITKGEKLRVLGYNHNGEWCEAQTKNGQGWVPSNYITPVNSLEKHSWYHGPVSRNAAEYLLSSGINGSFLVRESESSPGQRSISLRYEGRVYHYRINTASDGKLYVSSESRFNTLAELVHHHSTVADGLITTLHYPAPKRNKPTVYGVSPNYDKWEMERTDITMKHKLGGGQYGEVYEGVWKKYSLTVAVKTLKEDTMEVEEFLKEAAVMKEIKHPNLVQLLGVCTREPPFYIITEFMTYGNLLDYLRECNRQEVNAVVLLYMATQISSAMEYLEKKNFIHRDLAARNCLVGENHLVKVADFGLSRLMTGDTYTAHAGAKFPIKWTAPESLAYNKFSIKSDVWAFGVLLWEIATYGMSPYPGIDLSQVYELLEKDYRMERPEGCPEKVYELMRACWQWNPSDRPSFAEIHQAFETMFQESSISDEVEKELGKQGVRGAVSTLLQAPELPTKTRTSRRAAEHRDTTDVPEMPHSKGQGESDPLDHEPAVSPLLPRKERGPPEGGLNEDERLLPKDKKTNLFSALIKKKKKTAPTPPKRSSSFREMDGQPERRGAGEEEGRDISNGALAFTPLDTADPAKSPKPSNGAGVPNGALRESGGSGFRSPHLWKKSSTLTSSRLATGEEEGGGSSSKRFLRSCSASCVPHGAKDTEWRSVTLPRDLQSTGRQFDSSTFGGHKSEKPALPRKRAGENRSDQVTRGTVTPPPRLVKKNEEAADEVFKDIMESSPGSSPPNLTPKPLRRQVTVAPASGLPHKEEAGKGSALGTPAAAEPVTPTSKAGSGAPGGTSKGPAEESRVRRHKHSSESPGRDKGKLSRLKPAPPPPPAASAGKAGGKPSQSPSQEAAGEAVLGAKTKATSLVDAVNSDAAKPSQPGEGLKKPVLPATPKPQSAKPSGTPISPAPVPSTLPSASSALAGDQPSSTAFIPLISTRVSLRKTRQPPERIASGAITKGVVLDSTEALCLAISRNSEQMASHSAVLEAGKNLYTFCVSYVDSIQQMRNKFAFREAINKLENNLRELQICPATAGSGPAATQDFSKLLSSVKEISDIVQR

For `Nc1nccc(-c2cn(C(=O)N3CCOCC3)c3ccc(Br)cc23)n1`, the inhibition in assay [1] turned out to be 4.4%; in assay [2] it was 7.8%; in assay [3], 0%; in assay [4], 11.1%; in assay [5], 13.8%; in assay [6] it was 12.6%. In addition, the inhibition in [8] was determined as 0%; in assay [9], 0%; in assay [10], 3%; in [11], 26.5%; in [12], 16.4%; in [13], 0%. Besides, the inhibition is 12.6% in assay [16] and 22.7% in [17]. The IC50 in assay [7] came to 500 nM; in assay [14], 1400 nM. In assay [15], the viability at 10 µM was found to be 82.5%.

Values taken from ChEMBL document CHEMBL3596148, “Meridianin derivatives as potent Dyrk1A inhibitors and neuroprotective agents” (Bioorg Med Chem Lett, 2015).
